Reference: ChEMBL document CHEMBL2034839, “Pharmacophore Refinement Guides the Rational Design of Nanomolar-Range Inhibitors of the Botulinum Neurotoxin Serotype A Metalloprotease” (ACS Med Chem Lett, 2010)
Activity calls are given as the source filed them. No cut-off for these calls is given here.

Tests used:
[1] = biological target: Botulinum neurotoxin type A (Clostridium botulinum, UniProt P0DPI0); test: Inhibition of Clostridium botulinum BoNT/A light chain assessed as inhibition of SNAP-25 (187-203) substrate hydrolysis by RP-HPLC-based assay in presence of excess Zn(II)
[2] = biological target: Botulinum neurotoxin type A (Clostridium botulinum) (UniProt P0DPI0); test: Competitive inhibition of Clostridium botulinum BoNT/A light chain assessed as inhibition of SNAP-25 (187-203) substrate hydrolysis by Dixon plot analysis
Chain of Botulinum neurotoxin type A (Clostridium botulinum) (P0DPI0 2-448 limits assumed): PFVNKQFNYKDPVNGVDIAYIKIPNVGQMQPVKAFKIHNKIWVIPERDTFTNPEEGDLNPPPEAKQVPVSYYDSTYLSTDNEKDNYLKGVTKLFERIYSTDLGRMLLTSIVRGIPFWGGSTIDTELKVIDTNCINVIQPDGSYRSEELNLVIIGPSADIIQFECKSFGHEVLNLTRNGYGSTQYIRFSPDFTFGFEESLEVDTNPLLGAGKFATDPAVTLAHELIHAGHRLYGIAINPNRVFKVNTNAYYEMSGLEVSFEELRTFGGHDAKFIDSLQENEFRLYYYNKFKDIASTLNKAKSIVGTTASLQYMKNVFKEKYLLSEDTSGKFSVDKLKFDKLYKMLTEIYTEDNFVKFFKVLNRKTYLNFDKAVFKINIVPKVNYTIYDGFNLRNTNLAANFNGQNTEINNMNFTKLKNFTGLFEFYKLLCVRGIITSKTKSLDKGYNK

Chain of Botulinum neurotoxin type A (P0DPI0 2-448 limits assumed): as above

Row | Compound | Ki [1] | inhibition [2]
1 | O=C(NCCCNc1ccnc2cc(Cl)ccc12)c1cc(NC(=O)c2ccc(C(=O)Nc3cc(C(=O)NCCCNc4ccnc5cc(Cl)ccc45)cc(C4=NCCN4)c3)cc2)cc(C2=NCCN2)c1 | 572 nM | Active
2 | O=C(NCCNc1ccnc2cc(Cl)ccc12)c1cc(NC(=O)c2ccc(C(=O)Nc3cc(C(=O)NCCNc4ccnc5cc(Cl)ccc45)cc(C4=NCCN4)c3)cc2)cc(C2=NCCN2)c1 | 2120 nM | Active
3 | CCCCNC(=O)c1cc(NC(=O)c2ccc(C(=O)Nc3cc(C(=O)NCCCC)cc(C4=NCCN4)c3)cc2)cc(C2=NCCN2)c1 | 8520 nM | 
4 | O=C(NCCCCNc1ccnc2cc(Cl)ccc12)c1cc(NC(=O)c2ccc(C(=O)Nc3cc(C(=O)NCCCCNc4ccnc5cc(Cl)ccc45)cc(C4=NCCN4)c3)cc2)cc(C2=NCCN2)c1 | 900 nM | Active
